Results taken from patent publication US20090137527A1, “Compositions and methods for modulating immune function” (Resolvyx Pharmaceuticals, Inc., priority 2007, published 2009).
“Also recorded” adds a separate entry of the source.

Legend:
[1] = tested on: lymph node cells from collagen-induced arthritis rats; experiment: Ex vivo cytokine production in lymph node cells from CIA rats treated with compound; design: species or system rat
Protocol: (§1) Female Lewis rats were anesthetized with 3-5% isoflurane and arthritis was induced by intradermal injection of 0.3 mL (100 μL at three different sites) of an emulsion […] 1.5 mg/mL of type II bovine collagen, CII (Elastin Products Inc., Cat# CM276), in incomplete Freund's adjuvant (IFA) at the base of the tail on day 0 and 6. Control rats were injected with an equal amount of IFA only.
(§2) were measured under two different treatment regimens. In the first (prophylactic) treatment regimen, Compound X was administered i.v., twice daily, at 0.3 mg/kg from day 0 to day 6 or 10. For ex vivo studies, animals were euthanized on day 6 after the last injection and their inguinal lymph nodes were harvested. […] For ex vivo studies, animals were euthanized on day 16 and inguinal lymph nodes were harvested. Venous blood samples were collected during the course of treatment. For CD3 activation, 96-well flat bottom plates were coated with anti-CD3 mAb (eBioscience, clone G4.18) 1 μg/mL. Plates were stored overnight at 4° C., and were subsequently rinsed with PBS once before use. Bovine Type II collagen for tissue culture was purchased from Chondrex (Cat# 2022) and was reconstituted according to the manufacturer's instructions. All data were processed and analyzed by t-test using GraphPad Prism software.
Treatment regimen one was used (n=3). Animals were treated with Compound X from day 0 to day 6, were sacrificed on day 6, and freshly harvested lymph nodes were pressed through a nylon strainer (BD Falcon Cat# 352340) to obtain a single cell suspension. Cells were washed and resuspended in RPMI 1640/10% FCS at 4×10^6/mL. In U-bottom 96-well plates, 100 μL or 4×10^5 cells and 100 μL of collagen at 25 or 50 μg/mL final concentrations were added. Plates were incubated in a 37° C., 5% CO2 incubator overnight. Supernatants were harvested, and rat cytokines were measured with Bioplex (BioRad).
In FIG. 2A, animals were given compound X from Day 0 to Day 6 (treatment regimen one). In FIG. 2B, animals were given compound X from day 8 to day 16 (treatment regimen two).
In FIG. 3A, animals were given compound X from Day 0 to Day 6 (treatment regimen one). In FIG. 3B, animals were given compound X from day 8 to day 16 (treatment regimen two). Freshly harvested lymph nodes were pressed through a nylon strainer (BD Falcon Cat# 352340) to obtain a single cell suspension. Cells were washed and resuspended in RPMI 1640/10% FCS at 4×10^6/mL. To anti-CD3 coated plates were added 4×10^5 cells per well and 100 μL RPMI 1640/10% FCS media. The plates were incubated in a 37° C., 5% CO2 incubator for three days (FIG. 3A) or overnight (FIG. 3B). Rat IL-17 was measured with a kit from Millipore (Cat# RCYTO-18K-01) following the manufacturer's instructions.

[2] = tested on: whole blood from CIA rats; experiment: Ex vivo LPS-stimulated cytokines in whole blood from CIA rats; design: species or system rat; settings: 0.3 mg/kg i.v. twice daily (day 20 sample: 1 mg/kg orally twice daily) from day 8; 10 ng/mL LPS, 4 hours
Protocol: as §1
as §2, with “Bovine Type II collagen for tissue culture was purchased from Chondrex (Cat# 2022) and was reconstituted according to the manufacturer's instructions.” left out
To measure the effect of Compound X on blood cells, rat whole blood samples were taken on day 8, 10, 13, 16 and 20 (n=3-6). […] After 4 hours in culture, supernatants were collected and cytokine levels measured by Bioplex.

[3] = two treatment regimens: day 0 to day 6, or day 8 to day 16, 0.3 mg/kg i.v. twice daily

CC[C@@H](O)/C=C/C=C\C[C@@H](O)/C=C/C=C/C=C\[C@@H](O)CCCC(=O)O [Compound X]
ex vivo IFN-γ and TNFα production in lymph node cells ([1]; 0.3 mg/kg i.v. twice daily day 0 to day 6, collagen 25 or 50 μg/mL overnight): inhibited
reduction of collagen- or CD3-induced IFNγ, TNFα and IL-17 secretion from draining lymph node cells ([1]; treated animals compared to controls): 60-90%
ex vivo anti-CD3 mAb-induced IL-17 production in lymph node cells [1, 3]: inhibited
ex vivo collagen-induced IFN-γ production in lymph node cells [1, 3]: inhibited
ex vivo LPS-stimulated cytokine production in whole blood [2]: inhibited; also recorded: significantly lower
